From patent US12403141B2, “Deuterated MK2 pathway inhibitors and methods of using the same” (ACLARIS THERAPEUTICS, INC., priority 2019, dated 2025)

Assays:
Assay type in all cases: in vitro ADME
Details in all cases: 10 μM; for UV % at 280-290 nm, Parent-T0 min: T0 min (normalized as 100%)
rat hepatocytes = experiment: In vitro metabolite profile in rat hepatocytes; set-up: key to UV % at 280-290 nm or observed (+ or --), metabolite M532b (Hydroxylation) / UV % at 280-290 nm or observed (+ or --), metabolite M532d (Hydroxylation) / UV % at 280-290 nm or observed (+ or --), metabolite M532e (Hydroxylation) / UV % at 280-290 nm or observed (+ or --), metabolite M530b (Hydroxylation) / UV % at 280-290 nm or observed (+ or --), metabolite M530d (Hydroxylation) / UV % at 280-290 nm or observed (+ or --), metabolite M530e (Hydroxylation): +: only detected by MS; --: not detected or trace
Description: (§1) Briefly, each test compound (final concentration of 10 μM containing 0.1% DMSO) was incubated with rat, dog, minipig, monkey, or human hepatocytes (final viable cell density of 1×10^6 cells/mL) at 37° C. with 5% CO2 in HI hepatocyte maintenance media (BIOIVT; Catalog #Z99009) for 120 minutes. Reactions were initiated by combining 200 μL of pre-warmed 2× dosing solution containing 20 μM test compound and 0.2% DMSO in HI maintenance media with 200 μL of pre-warmed hepatocyte solution containing 2×10^6 cells/mL in HI maintenance media. Samples were taken at 0 minutes (T0) and 120 minutes (T120) by quenching the reaction with 1200 μL acetonitrile. After quenching, the samples were sonicated for 2 minutes and then centrifuged at 1400 rpm for 5 minutes. A 1400-μL aliquot of the supernatant was evaporated under a stream of N2 until dry. The dried extracts were then reconstituted with 200 μL acetonitrile: H2O (1:3 v/v), vortexed for 2 minutes and centrifuged at 14000 rpm for 5 minutes. A 2-μL aliquot of the supernatant was injected onto a Xevo UPLC-UV-G2-S Q-Tof system (Waters®) with positive-ion electrospray ionization for analysis. Chromatographic separation was achieved on an Acquity UPLC®BEH C18 column (2.1×50 mm, 1.7 μm; Waters®) by gradient elution using varying proportions of mobile phase A (H2O with 0.1% formic acid) and mobile phase B (acetonitrile with 0.1% formic acid) at a constant flow rate of 400 μL/minute over a total run time of 10 minutes. LC-UV-MS extract ion chromatograms (EIC) of the T120 samples were compared to the T0 samples to identify the major putative metabolites which were named as Mm/z.

monkey hepatocytes = experiment: In vitro metabolite profile in monkey hepatocytes; set-up: key to UV % at 280-290 nm or observed (+ or --), metabolite M387 (O-dealkylation) / UV % at 280-290 nm or observed (+ or --), metabolite M532b (Hydroxylation) / UV % at 280-290 nm or observed (+ or --), metabolite M532c (Hydroxylation) / UV % at 280-290 nm or observed (+ or --), metabolite M532d (Hydroxylation) / UV % at 280-290 nm or observed (+ or --), metabolite M563 (O-dealkylation + Glucuronidation) / UV % at 280-290 nm or observed (+ or --), metabolite M530b (Hydroxylation) / UV % at 280-290 nm or observed (+ or --), metabolite M530c (Hydroxylation) / UV % at 280-290 nm or observed (+ or --), metabolite M530d (Hydroxylation): +: only detected by MS; --: not detected or trace
Description: as §1

dog hepatocytes = experiment: In vitro metabolite profile in dog hepatocytes; set-up: key to UV % at 280-290 nm or observed (+ or --), metabolite M387 (O-dealkylation) / UV % at 280-290 nm or observed (+ or --), metabolite M532b (Hydroxylation) / UV % at 280-290 nm or observed (+ or --), metabolite M532c (Hydroxylation) / UV % at 280-290 nm or observed (+ or --), metabolite M532d (Hydroxylation) / UV % at 280-290 nm or observed (+ or --), metabolite M532e (Hydroxylation) / UV % at 280-290 nm or observed (+ or --), metabolite M563 (O-dealkylation + Glucuronidation) / UV % at 280-290 nm or observed (+ or --), metabolite M530b (Hydroxylation) / UV % at 280-290 nm or observed (+ or --), metabolite M530c (Hydroxylation) / UV % at 280-290 nm or observed (+ or --), metabolite M530d (Hydroxylation) / UV % at 280-290 nm or observed (+ or --), metabolite M530e (Hydroxylation): +: only detected by MS; --: not detected or trace
Description: as §1

[1] = 120 min, relative to parent at T0

SMILES: [2H]C([2H])(Oc1cc(C)n(-c2cc(-c3ccnc(C(C)(C)O)n3)ncc2C)c(=O)c1Cl)c1ncc(F)cc1F (single isomer, unassigned) [Example 1-D2, (P)-3-Chloro-4-((3,5-difluoropyridin-2-yl)methoxy-d2)-2′-(2-(2-hydroxypropan-2-yl)pyrimidin-4-yl)-5′,6-dimethyl-2H-[1,4′-bipyridin]-2-one]
- UV % at 280-290 nm or observed (+ or --), metabolite M532b (Hydroxylation) (rat hepatocytes; [1]): --
- UV % at 280-290 nm or observed (+ or --), metabolite M532e (Hydroxylation) (rat hepatocytes; [1]): +
- UV % at 280-290 nm or observed (+ or --), metabolite M532d (Hydroxylation) (rat hepatocytes; [1]): --
- UV % at 280-290 nm, Parent-T120 min (rat hepatocytes; [1]): 84.3%
- UV % at 280-290 nm, Parent-T0 min (rat hepatocytes): 100.0%
- UV % at 280-290 nm or observed (+ or --), metabolite M387 (O-dealkylation) (monkey hepatocytes; [1]): +
- UV % at 280-290 nm or observed (+ or --), metabolite M532b (Hydroxylation) (monkey hepatocytes; [1]): --
- UV % at 280-290 nm or observed (+ or --), metabolite M532c (Hydroxylation) (monkey hepatocytes; [1]): +
- UV % at 280-290 nm or observed (+ or --), metabolite M532d (Hydroxylation) (monkey hepatocytes; [1]): +
- UV % at 280-290 nm, Parent-T120 min (monkey hepatocytes; [1]): 96.6%
- UV % at 280-290 nm, Parent-T0 min (monkey hepatocytes): 100.0%
- UV % at 280-290 nm or observed (+ or --), metabolite M387 (O-dealkylation) (dog hepatocytes; [1]): +
- UV % at 280-290 nm or observed (+ or --), metabolite M532b (Hydroxylation) (dog hepatocytes; [1]): --
- UV % at 280-290 nm or observed (+ or --), metabolite M532c (Hydroxylation) (dog hepatocytes; [1]): +
- UV % at 280-290 nm or observed (+ or --), metabolite M532e (Hydroxylation) (dog hepatocytes; [1]): +
- UV % at 280-290 nm or observed (+ or --), metabolite M532d (Hydroxylation) (dog hepatocytes; [1]): --
- UV % at 280-290 nm, Parent-T120 min (dog hepatocytes; [1]): 96.0%
- UV % at 280-290 nm, Parent-T0 min (dog hepatocytes): 100.0%

SMILES: Cc1cnc(-c2ccnc(C(C)(C)O)n2)cc1-n1c(C)cc(OCc2ncc(F)cc2F)c(Cl)c1=O (atropisomer, axis not shown; (P)) [Example 1-H2, (P)-3-chloro-4-((3,5-difluoropyridin-2-yl)methoxy)-2′-(2-(2-hydroxypropan-2-yl)pyrimidin-4-yl)-5′,6-dimethyl-2H-[1,4′-bipyridin]-2-one]
- UV % at 280-290 nm or observed (+ or --), metabolite M387 (O-dealkylation) (rat hepatocytes; [1]): 16.2%
- UV % at 280-290 nm or observed (+ or --), metabolite M530b (Hydroxylation) (rat hepatocytes; [1]): +
- UV % at 280-290 nm or observed (+ or --), metabolite M530c (Hydroxylation) (rat hepatocytes; [1]): 1.1%
- UV % at 280-290 nm or observed (+ or --), metabolite M530e (Hydroxylation) (rat hepatocytes; [1]): +
- UV % at 280-290 nm or observed (+ or --), metabolite M563 (O-dealkylation + Glucuronidation) (rat hepatocytes; [1]): 1.06%
- UV % at 280-290 nm or observed (+ or --), metabolite M530d (Hydroxylation) (rat hepatocytes; [1]): --
- UV % at 280-290 nm, Parent-T120 min (rat hepatocytes; [1]): 82.7%
- UV % at 280-290 nm, Parent-T0 min (rat hepatocytes): 100.0%
- UV % at 280-290 nm or observed (+ or --), metabolite M387 (O-dealkylation) (monkey hepatocytes; [1]): 4.8%
- UV % at 280-290 nm or observed (+ or --), metabolite M530b (Hydroxylation) (monkey hepatocytes; [1]): --
- UV % at 280-290 nm or observed (+ or --), metabolite M530c (Hydroxylation) (monkey hepatocytes; [1]): +
- UV % at 280-290 nm or observed (+ or --), metabolite M530e (Hydroxylation) (monkey hepatocytes; [1]): 1.5%
- UV % at 280-290 nm or observed (+ or --), metabolite M563 (O-dealkylation + Glucuronidation) (monkey hepatocytes; [1]): +
- UV % at 280-290 nm or observed (+ or --), metabolite M530d (Hydroxylation) (monkey hepatocytes; [1]): --
- UV % at 280-290 nm, Parent-T120 min (monkey hepatocytes; [1]): 85.7%
- UV % at 280-290 nm, Parent-T0 min (monkey hepatocytes): 100.0%
- UV % at 280-290 nm or observed (+ or --), metabolite M387 (O-dealkylation) (dog hepatocytes; [1]): 4.1%
- UV % at 280-290 nm or observed (+ or --), metabolite M530b (Hydroxylation) (dog hepatocytes; [1]): --
- UV % at 280-290 nm or observed (+ or --), metabolite M530c (Hydroxylation) (dog hepatocytes; [1]): +
- UV % at 280-290 nm or observed (+ or --), metabolite M530e (Hydroxylation) (dog hepatocytes; [1]): +
- UV % at 280-290 nm or observed (+ or --), metabolite M563 (O-dealkylation + Glucuronidation) (dog hepatocytes; [1]): +
- UV % at 280-290 nm or observed (+ or --), metabolite M530d (Hydroxylation) (dog hepatocytes; [1]): --
- UV % at 280-290 nm, Parent-T120 min (dog hepatocytes; [1]): 87.0%
- UV % at 280-290 nm, Parent-T0 min (dog hepatocytes): 100.0%
